Test results taken from the NIST ThermoML archive (doi:10.1016/j.jct.2012.08.010).
± gives the expanded uncertainty stated by the source.

Tests used:
[1] = 101 kPa, Liquid, Vibrating tube method
[2] = refractive index (Na D-line) (dimensionless); details: 101.33 kPa, Liquid, Standard Abbe refractometry
[3] = refractive index (Na D-line) (dimensionless); φn = volume fraction of the nth substance listed; details: 101 kPa, Liquid, Standard Abbe refractometry, φ2 = 0
[4] = xn = mol fraction of the nth substance listed; details: 101 kPa, Liquid, Vibrating tube method, x2 = 0

SMILES | mass density ([1]; 288.15 K) | mass density ([1]; 298.15 K) | mass density ([1]; 308.15 K) | mass density ([1]; 318.15 K) | mass density ([1]; 328.15 K) | refractive index ([2]; 288.15 K) | refractive index ([2]; 298.15 K) | refractive index ([2]; 308.15 K) | refractive index ([2]; 318.15 K) | refractive index ([2]; 328.15 K) | refractive index ([3]; 288.15 K) | refractive index ([3]; 298.15 K) | refractive index ([3]; 308.15 K) | refractive index ([3]; 318.15 K) | refractive index ([3]; 328.15 K) | mass density ([4]; 288.15 K) | mass density ([4]; 298.15 K) | mass density ([4]; 308.15 K) | mass density ([4]; 318.15 K) | mass density ([4]; 328.15 K)
Cc1ccccc1C [1,2-dimethylbenzene] | 884.07 ± 0.12 kg/m3 | 875.67 ± 0.13 kg/m3 | 867.3 ± 0.1 kg/m3 | 858.81 ± 0.13 kg/m3 | 850.24 ± 0.13 kg/m3 | 1.50775 ± 0.00031 | 1.50257 ± 0.00031 | 1.49724 ± 0.00031 | 1.49201 ± 0.00031 | 1.48661 ± 0.00031 | – | – | – | – | – | – | – | – | – | –
Cc1ccccc1C [1,2-dimethylbenzene] + C=C[Si]1(C)O[Si](C)(C=C)O[Si](C)(C=C)O[Si](C)(C=C)O1 | – | – | – | – | – | – | – | – | – | – | 1.50775 ± 0.00031 | 1.50257 ± 0.00031 | 1.49724 ± 0.00031 | 1.49201 ± 0.00031 | 1.48661 ± 0.00031 | 884.07 ± 0.12 kg/m3 | 875.67 ± 0.13 kg/m3 | 867.3 ± 0.1 kg/m3 | 858.81 ± 0.13 kg/m3 | 850.24 ± 0.13 kg/m3
Cc1cccc(C)c1 [1,3-dimethylbenzene] | 868.39 ± 0.13 kg/m3 | 859.83 ± 0.13 kg/m3 | 851.25 ± 0.13 kg/m3 | 842.58 ± 0.13 kg/m3 | 833.85 ± 0.14 kg/m3 | 1.49969 ± 0.00031 | 1.49444 ± 0.00031 | 1.48894 ± 0.00031 | 1.48355 ± 0.00031 | 1.4782 ± 0.0003 | – | – | – | – | – | – | – | – | – | –
Cc1cccc(C)c1 [1,3-dimethylbenzene] + C=C[Si]1(C)O[Si](C)(C=C)O[Si](C)(C=C)O[Si](C)(C=C)O1 | – | – | – | – | – | – | – | – | – | – | 1.49969 ± 0.00031 | 1.49444 ± 0.00031 | 1.48894 ± 0.00031 | 1.48355 ± 0.00031 | 1.4782 ± 0.0003 | 868.39 ± 0.13 kg/m3 | 859.83 ± 0.13 kg/m3 | 851.25 ± 0.13 kg/m3 | 842.58 ± 0.13 kg/m3 | 833.85 ± 0.14 kg/m3
Cc1ccc(C)cc1 [1,4-dimethylbenzene] | 865.3 ± 0.1 kg/m3 | 856.62 ± 0.13 kg/m3 | 847.97 ± 0.13 kg/m3 | 839.21 ± 0.13 kg/m3 | 830.39 ± 0.14 kg/m3 | 1.49836 ± 0.00031 | 1.49298 ± 0.00031 | 1.48743 ± 0.00031 | 1.48202 ± 0.00031 | 1.47654 ± 0.00031 | – | – | – | – | – | – | – | – | – | –
Cc1ccc(C)cc1 [1,4-dimethylbenzene] + C=C[Si]1(C)O[Si](C)(C=C)O[Si](C)(C=C)O[Si](C)(C=C)O1 | – | – | – | – | – | – | – | – | – | – | 1.49836 ± 0.00031 | 1.49298 ± 0.00031 | 1.48743 ± 0.00031 | 1.48202 ± 0.00031 | 1.47654 ± 0.00031 | 865.3 ± 0.1 kg/m3 | 856.62 ± 0.13 kg/m3 | 847.97 ± 0.13 kg/m3 | 839.21 ± 0.13 kg/m3 | 830.39 ± 0.14 kg/m3
C=C[Si]1(C)O[Si](C)(C=C)O[Si](C)(C=C)O[Si](C)(C=C)O1 (stereo not given) [2,4,6,8-tetramethyl-2,4,6,8-tetravinylcycloterasiloxane] | 992.74 ± 0.13 kg/m3 | 982.54 ± 0.13 kg/m3 | 972.34 ± 0.13 kg/m3 | 962.14 ± 0.13 kg/m3 | 951.94 ± 0.13 kg/m3 | 1.43674 ± 0.00033 | 1.43202 ± 0.00033 | 1.4273 ± 0.0003 | 1.42257 ± 0.00033 | 1.41785 ± 0.00033 | – | – | – | – | – | – | – | – | – | –
CCc1ccccc1 [ethylbenzene] | 871.31 ± 0.13 kg/m3 | 862.55 ± 0.13 kg/m3 | 853.75 ± 0.13 kg/m3 | 844.87 ± 0.13 kg/m3 | 835.93 ± 0.13 kg/m3 | 1.49834 ± 0.00031 | 1.49297 ± 0.00031 | 1.48747 ± 0.00031 | 1.48202 ± 0.00031 | 1.47649 ± 0.00031 | – | – | – | – | – | – | – | – | – | –
CCc1ccccc1 [ethylbenzene] + C=C[Si]1(C)O[Si](C)(C=C)O[Si](C)(C=C)O[Si](C)(C=C)O1 | – | – | – | – | – | – | – | – | – | – | 1.49834 ± 0.00031 | 1.49297 ± 0.00031 | 1.48747 ± 0.00031 | 1.48202 ± 0.00031 | 1.47649 ± 0.00031 | 871.31 ± 0.13 kg/m3 | 862.55 ± 0.13 kg/m3 | 853.75 ± 0.13 kg/m3 | 844.87 ± 0.13 kg/m3 | 835.93 ± 0.13 kg/m3
